Reference: US10633419B2, “Immunomodulators” (BRISTOL-MYERS SQUIBB COMPANY, priority 2014, dated 2020)
Starred links: 1 amine or outer side, 2 acyl side, 3 side chain; linkers in the order of their positions; H or OH if unused. Positions of bridges follow the written chain, without caps; N, C: chain ends. Non-standard residues stand in square brackets, D forms with d. Residues, ends and D or L forms follow the SMILES beside them. ξ: configuration not given here. *: point of attachment. X7 = CCCCCCCCCCCCCCCCNC(=O)[C@H](CC(=O)O)NC(=O)CCC(=O)NCCCOCCOCCOCCCN*; X4 = O=C(O)CCCCCCCCCCCCCCCCC(=O)N[C@@H](CC(=O)NCCCOCCOCCOCCCN*)C(=O)O; Trp(1-CH2COOH) = N[C@@H](Cc1cn(CC(=O)O)c2ccccc12)C(=O)O; X14 = O=C(O)CCCCCCCCCCNC(=O)CCC(=O)NCCCOCCOCCOCCCN*; X24 = O=C(C[C@@H](Cc1ccc(O)cc1)C(=O)[*:1])C[*:2]; PEG6 = NCCOCCOCCOCCOCCOCCOCCC(=O)O; Hyp = O=C(O)[C@@H]1C[C@@H](O)CN1; Myristoyl = CCCCCCCCCCCCCC(=O)*; dHyp = O=C(O)[C@H]1C[C@H](O)CN1; Undecanoyl = CCCCCCCCCCC(=O)*; NMeNle = CCCC[C@H](NC)C(=O)O; NMeA = CN[C@@H](C)C(=O)O; Pra = C#CC[C@H](N)C(=O)O; Dab = NCC[C@H](N)C(=O)O; Dap = NC[C@H](N)C(=O)O; ξD = NC(CC(=O)O)C(=O)O

target: T1, PD-L1 (Homo sapiens, UniProt Q9NZQ7); assay: PD-1/PD-L1 Homogenous Time-Resolved Fluorescence (HTRF) binding assay (PD-1-Ig/PD-L1-His); conditions: not given
T1 construct: hPDL1(19-239)-TVMV-His; made in house; host or cells: HEK293T
T1 sequence (Q9NZQ7 with tags, fused parts or gaps): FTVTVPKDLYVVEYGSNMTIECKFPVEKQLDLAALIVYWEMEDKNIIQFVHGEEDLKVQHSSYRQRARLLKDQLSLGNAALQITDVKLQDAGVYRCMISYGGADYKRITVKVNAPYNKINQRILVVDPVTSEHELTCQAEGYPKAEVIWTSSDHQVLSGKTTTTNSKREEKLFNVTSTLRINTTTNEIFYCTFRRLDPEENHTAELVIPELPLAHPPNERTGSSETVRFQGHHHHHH
Method in brief: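 Inhibitors pre-incubated 15 min with PD-L1-His (10 nM final), then PD-1-Ig (20 nM final) added for 15 min in dPBS/0.1% BSA/0.05% Tween-20. Eu-cryptate anti-Ig (1 nM) and APC anti-His (20 nM) added, 30 min equilibration, 665/620 nm HTRF ratio read.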

SMILES	IC50
CCCC[C@H]1C(=O)N(C)[C@@H](CCCC)C(=O)N[C@@H](CCC(=O)O)C(=O)N[C@H](C(=O)NCC(=O)N[C@@H](Cc2cn(CCOCCOCCOCCOCCOCCOC(=O)CCC(=O)Oc3c(C)c(C)c4c(c3C)CC[C@@](C)(CCC[C@H](C)CCC[C@H](C)CCCC(C)C)O4)nn2)C(=O)NCC(N)=O)CSCC(=O)N[C@@H](Cc2ccc(O)cc2)C(=O)N(C)[C@@H](C)C(=O)N[C@@H](CC(=O)O)C(=O)N2CCC[C@H]2C(=O)N[C@@H](Cc2c[nH]cn2)C(=O)N[C@@H](CCCCN)C(=O)N2C[C@H](O)C[C@H]2C(=O)N[C@@H](Cc2c[nH]c3ccccc23)C(=O)N[C@@H](CCCCN)C(=O)N[C@@H](Cc2c[nH]c3ccccc23)C(=O)N1C [Example 14053]	100 to 1600 nM

same assay, conditions: inhibition of PD-1-Ig binding to PD-L1-TVMV-His; value given as number; read-out: HTRF IC50

SMILES	IC50
CCCC[C@H]1C(=O)N(C)[C@@H](CCCC)C(=O)N[C@@H](CCC(=O)O)C(=O)N[C@H](C(=O)NCCCOCCOCCOCCCNC(=O)CCC(=O)NCCCCCCCCCCC(=O)O)CSCC(=O)N[C@@H](Cc2ccc(O)cc2)C(=O)N(C)[C@@H](C)C(=O)N[C@@H](CC(N)=O)C(=O)N2CCC[C@H]2C(=O)N[C@@H](Cc2cnc[nH]2)C(=O)N[C@@H](CCCCN)C(=O)N2C[C@H](O)C[C@H]2C(=O)N[C@@H](Cc2c[nH]c3ccccc23)C(=O)N[C@@H](CO)C(=O)N[C@@H](Cc2cn(CC(=O)O)c3ccccc23)C(=O)N1C [Example 11080] ({CH2CO}-Y[NMeA]NPHK[Hyp]WS[Trp(1-CH2COOH)][NMeNle][NMeNle]EC-X14; thioether N-14)	12.7 nM

same assay, conditions: inhibition of PD-1-Ig binding to PD-L1-TVMV-His; value given as range class; read-out: HTRF IC50

SMILES	IC50
CCCCCCCCCCCCCCCCNC(=O)[C@H](CC(=O)O)NC(=O)CCC(=O)NCCCOCCOCCOCCCNC(=O)CNC(=O)[C@@H]1CSCC(=O)N[C@@H](Cc2ccc(O)cc2)C(=O)N(C)[C@@H](C)C(=O)N[C@@H](CC(=O)O)C(=O)N2CCC[C@H]2C(=O)N[C@@H](Cc2cnc[nH]2)C(=O)N[C@@H](CC(C)C)C(=O)N2C[C@H](O)C[C@H]2C(=O)N[C@@H](Cc2c[nH]c3ccccc23)C(=O)N[C@@H](CO)C(=O)N[C@@H](Cc2c[nH]c3ccccc23)C(=O)N(C)[C@@H](CCCC)C(=O)N(C)[C@@H](CCCC)C(=O)N[C@@H](CCCNC(=N)N)C(=O)N1 [Example 11128] ({CH2CO}-Y[NMeA]DPHL[Hyp]WSW[NMeNle][NMeNle]RCG-X7; thioether N-14)	10 to 99 nM
C#CC[C@H](NC(=O)CNC(=O)[C@@H]1CSCC(=O)N[C@@H](Cc2ccc(O)cc2)C(=O)N(C)[C@@H](C)C(=O)N[C@@H](CC(=O)O)C(=O)N2CCC[C@H]2C(=O)N[C@@H](Cc2c[nH]cn2)C(=O)N[C@@H](CCC(N)=O)C(=O)N2C[C@H](O)C[C@H]2C(=O)N[C@@H](Cc2c[nH]c3ccccc23)C(=O)N[C@@H](CO)C(=O)N[C@@H](Cc2c[nH]c3ccccc23)C(=O)N(C)[C@@H](CCCC)C(=O)N(C)[C@@H](CCCC)C(=O)N[C@@H](CCC(=O)O)C(=O)N1)C(=O)NCC(N)=O [INT 1400C] ({CH2CO}-Y[NMeA]DPHQ[Hyp]WSW[NMeNle][NMeNle]ECG[Pra]G-NH2; thioether N-14)	0.3 to 9.9 nM
CCCCCCCCCCCCCC(=O)NCCCC[C@H](NC(=O)C(CC(=O)O)NC(=O)CCOCCOCCOCCOCCOCCOCCNC(=O)CNC(=O)[C@@H]1CSCC(=O)C[C@@H](Cc2ccc(O)cc2)C(=O)N(C)[C@@H](C)C(=O)N[C@@H](CC(=O)O)C(=O)N2CCC[C@H]2C(=O)N[C@@H](Cc2cnc[nH]2)C(=O)N[C@@H](CC(C)C)C(=O)N2C[C@H](O)C[C@H]2C(=O)N[C@@H](Cc2c[nH]c3ccccc23)C(=O)N[C@@H](CO)C(=O)N[C@@H](Cc2c[nH]c3ccccc23)C(=O)N(C)[C@@H](CCCC)C(=O)N(C)[C@@H](CCCC)C(=O)N[C@@H](CCCNC(=N)N)C(=O)N1)C(N)=O (stereo partly shown) [Example 11013] ([NMeA]DPHL[Hyp]WSW[NMeNle][NMeNle]RCG[PEG6][ξD]K(Myristoyl)-NH2; linker N-13 via X24)	10 to 99 nM
CCCCCCCCCCC(=O)NCCCC[C@H](NC(=O)CNC(=O)[C@@H]1CSCC(=O)N[C@@H](Cc2ccc(O)cc2)C(=O)N(C)[C@@H](C)C(=O)N[C@@H](CC(N)=O)C(=O)N2CCC[C@H]2C(=O)N[C@@H](Cc2cnc[nH]2)C(=O)N[C@@H](CCC(=O)O)C(=O)N2C[C@H](O)C[C@H]2C(=O)N[C@@H](Cc2c[nH]c3ccccc23)C(=O)N[C@@H](CCN)C(=O)N[C@@H](Cc2c[nH]c3ccccc23)C(=O)N(C)[C@@H](CCCC)C(=O)N(C)[C@@H](CCCC)C(=O)N[C@@H](CCN)C(=O)N1)C(N)=O [Example 11007] ({CH2CO}-Y[NMeA]NPHE[Hyp]W[Dab]W[NMeNle][NMeNle][Dab]CGK(Undecanoyl)-NH2; thioether N-14)	10 to 99 nM
CCCC[C@H]1C(=O)N(C)[C@@H](CCCC)C(=O)N[C@@H](CC(C)C)C(=O)N[C@H](C(=O)NCC(=O)N[C@@H](CC(=O)O)C(=O)N[C@@H](CC(=O)NCCCOCCOCCOCCCNC(=O)C[C@H](NC(=O)CCCCCCCCCCCCCCCCC(=O)O)C(=O)O)C(=O)O)CSCC(=O)N[C@@H](Cc2ccc(O)cc2)C(=O)N(C)[C@@H](C)C(=O)N[C@@H](CC(N)=O)C(=O)N2CCC[C@@H]2C(=O)N[C@@H](CN)C(=O)N[C@@H](CC(C)C)C(=O)N2C[C@@H](O)C[C@@H]2C(=O)N[C@@H](Cc2c[nH]c3ccccc23)C(=O)N[C@@H](CCN)C(=O)N[C@@H](Cc2cn(CC(=O)O)c3ccccc23)C(=O)N1C [Example 11232] ({CH2CO}-Y[NMeA]N[dP][Dap]L[dHyp]W[Dab][Trp(1-CH2COOH)][NMeNle][NMeNle]LCGDD(X4)-OH; thioether N-14)	10 to 99 nM
CCCC[C@H]1C(=O)N(C)[C@@H](CCCC)C(=O)N[C@@H](CCC(=O)O)C(=O)N[C@H](C(=O)N[C@@H](Cc2cn(CCC(NC(=O)CCCCCCCCCCCCCCCCC(=O)O)C(=O)O)nn2)C(=O)O)CSCC(=O)N[C@@H](Cc2ccc(O)cc2)C(=O)N(C)[C@@H](C)C(=O)N[C@@H](CC(N)=O)C(=O)N2CCC[C@H]2C(=O)N[C@@H](CN)C(=O)N[C@@H](CC(C)C)C(=O)N2C[C@H](O)C[C@H]2C(=O)N[C@@H](Cc2c[nH]c3ccccc23)C(=O)N[C@@H](CCN)C(=O)N[C@@H](Cc2cn(CC(=O)O)c3ccccc23)C(=O)N1C (stereo partly shown) [Example 13130]	0.3 to 9.9 nM
CCCCCCCCCCC(=O)NCCCC[C@H](NC(=O)[C@H](CC(=O)O)NC(=O)CNC(=O)[C@@H]1CSCC(=O)N[C@@H](Cc2ccc(O)cc2)C(=O)N(C)[C@@H](C)C(=O)N[C@@H](CC(=O)O)C(=O)N2CCC[C@H]2C(=O)N[C@@H](Cc2cnc[nH]2)C(=O)N[C@@H](CC(C)C)C(=O)N2C[C@H](O)C[C@H]2C(=O)N[C@@H](Cc2c[nH]c3ccccc23)C(=O)N[C@@H](CO)C(=O)N[C@@H](Cc2c[nH]c3ccccc23)C(=O)N(C)[C@@H](CCCC)C(=O)N(C)[C@@H](CCCC)C(=O)N[C@@H](CCCNC(=N)N)C(=O)N1)C(N)=O [Example 11006] ({CH2CO}-Y[NMeA]DPHL[Hyp]WSW[NMeNle][NMeNle]RCGDK(Undecanoyl)-NH2; thioether N-14)	10 to 99 nM
CCCC[C@H]1C(=O)N(C)[C@@H](CCCC)C(=O)N[C@@H](CC(C)C)C(=O)C[C@H](C(=O)NCC(=O)N[C@@H](CC(=O)O)C(=O)NC[C@H](NC(=O)CCCCCCCCCCCCCCCCC(=O)O)C(=O)O)CSCC(=O)N[C@@H](Cc2ccc(O)cc2)C(=O)N(C)[C@@H](C)C(=O)N[C@@H](CC(N)=O)C(=O)N2CCC[C@H]2C(=O)N[C@@H](CN)C(=O)N[C@@H](CC(C)C)C(=O)N2C[C@H](O)C[C@H]2C(=O)N[C@@H](Cc2c[nH]c3ccccc23)C(=O)N[C@@H](CCN)C(=O)N[C@@H](Cc2cn(CC(=O)O)c3ccccc23)C(=O)N1C [Example 11185]	10 to 99 nM
